Results taken from patent US20150087683A1, “TREATMENT METHOD FOR STEROID RESPONSIVE DERMATOSES” (GlaxoSmithKline Intellectual Property (No.2) Limited, priority 2012, published 2015).
Where “and” joins values, the source holds several entries; their conditions need not be identical. Equal entries are not always repeated.

Experiments:
plaques of psoriasis = assay: Clinical result: psoriasis plaques in a patient of cancer trial PCS113124; assay type: in vivo; details: human, patient 1200
From the text: Compound C was in human clinical trials for the treatment of cancer.

MCF7 cells = assay: CMap analysis using psoriasis disease signature against mRNA expression profiles of compound-treated MCF7 cells (Assay #1); assay type: cell-based, human
Protocol: A general overview of the experimental protocol is indicated below.
The flask is incubated at 37 C for ˜2 minutes to dissociate the cells. • The dissociated cells are harvested with culture media, ˜10 ml/flask. • The harvested cell suspensions are pooled and re-suspended to ensure a homogenous suspension. • The suspension is divided into approximately 1e10̂6 cells per well. • The cells are spun down and re-suspended in fresh culture media to 1e10̂6 cells/2 mL media. • 2 ml of the adjusted cell suspension is dispensed into each well of 6-well plates. • The 6-well plates are incubated overnight at approximately 37 C: 5% CO2.
• An assay block, containing 3 ul 10 mM compound (small molecule)/well, is allowed to return to room temperature. • Culture media is warmed to 37 C. • 600 ul culture media is added to each well of assay block (containing 3 ul 10 mM compound). (=200× dilution) • Intermediate dilution is then 50 uM. • 500 ul of the intermediate dilution is transferred directly on to cells in 6-wells plated (in 2 ml) from previous day. (=5× dilution) • Cells then have 2.5 ml media on them. Final compound concentration is then 10 uM, final DMSO concentration is then 0.1%. • Treated cells are then returned to the incubator and treatment time is noted. • By way of example, if the final treatment concentration is to be something other than 10 uM, the stock should be adjusted first in DMSO so that the […] dilution still delivers 0.1% DMSO final.
• Fresh RLT buffer (QIAGEN)+2-Me is prepared. • After 6 hours of treatment, the 6-well plates are removed from incubator. • The test compound is aspirated from the cell monolayer. • 350 ul of RLT buffer is added per well. • Cells are scraped and the contents of each well is transferred to an appropriately labeled microfuge tube. • Freeze and store the samples at −80 C.
Frozen samples were shipped to Expression Analysis, Inc. Durham N.C. (EA) to generate RNA profiling data. To generate whole genome RNA expression profiles, samples were processed for RNA purification and hybridization to IllumanHT-12-V4 Expression BeadChips.
The significance of particular set of compound instance(s) of interest is estimated by permutation pvalue.

primary keratinocytes = assay: CMap analysis using psoriasis disease signature against mRNA expression profiles of compound-treated primary keratinocytes (Assay #2); assay type: cell-based, human; details: for Ks down / Ks up / Raw Score / Scale Score: Keratinocyte
Protocol: The general procedure of Assay #1 was repeated with Compound C with substitution of primary keratinocytes. Primary keratinocytes were purchased from Zen-Bio, Inc. and grown in Zen-Bio, Inc. human adult keratinocyte growth medium (cat# KM-2).
Following the general procedure of Assay #1 for Day 1, keratinocytes plated on T225 flasks were trypsinized and resuspended in 17.4 mL of KM-2 medium. The cells were then seeded in the 6-well plates with 0.5×10^6 cells per well in a total 4 mL KM-2 medium.
Following the general procedure of Assay #1 for Day 2, keratinocytes were treated with the compound at the final concentrations of 1 uM and 10 uM for 6 hours. KM-2 medium containing test compound is aspirated from the cell monolayer. 350 ul of RLT buffer is added per well, the contents in each well were scraped and transferred to an appropriately labeled microfuge tube. Samples were frozen and stored at −80 C.
The subsequent sample processing, RNA purification and hybridization to the chips for microarray experiments were conducted by Expression Analysis, Inc. Durham N.C. (EA).

## Cn1ncc(Cl)c1-c1cc(C(=O)N[C@H](CN)Cc2ccc(F)c(F)c2)oc1Cl [Compound C, N-{(1S)-2-amino-1-[(3,4-difluorophenyl)methyl]ethyl}-5-chloro-4-(4-chloro-1-methyl-1H-pyrazol-5-yl)-2-furancarboxamide]
Plaques of psoriasis
  course of mild plaques of psoriasis during treatment: generally got better and even disappeared at times
MCF7 cells; MCF7, 10 uM, 6 hours treatment
  Enrichment Score: −0.8835
  Mean CMap Score: −0.1867
MCF7 cells; MCF7, 10 uM, 6 hours treatment, individual instance scores
  CMap Score Distribution: (−0.17 −0.17 and −0.21)
MCF7 cells; MCF7 cells
  gene expression changes versus gene expression changes observed in psoriasis: negatively correlated
Primary keratinocytes; 1 uM, Day 1
  Ks down: 0.112
  Ks up: −0.22
  Raw Score: −0.3324
  Scale Score: −0.6723
Primary keratinocytes; 1 uM, Day 2
  Ks down: 0.172
  Ks up: −0.248
  Raw Score: −0.4204
  Scale Score: −0.8504
Primary keratinocytes; 1 uM, Day 3
  Ks down: 0.124
  Ks up: −0.139
  Raw Score: −0.2625
  Scale Score: −0.5309
Primary keratinocytes; 10 uM, Day 1
  Ks down: 0.112
  Ks up: −0.213
  Raw Score: −0.3251
  Scale Score: −0.6576
Primary keratinocytes; 10 uM, Day 2
  Ks down: 0.115
  Ks up: −0.296
  Raw Score: −0.4104
  Scale Score: −0.8302
Primary keratinocytes; 10 uM, Day 3
  Ks down: 0.114
  Ks up: −0.241
  Raw Score: −0.3551
  Scale Score: −0.7182
Primary keratinocytes; primary keratinocytes
  gene expression changes versus gene expression changes observed in psoriasis: negatively correlated
